Laboratory results taken from patent US8901133B2, “Heterocyclic compounds and uses thereof” (Infinity Pharmaceuticals, Inc., priority 2010, dated 2014).

What was measured:
Format in all cases: biochemical
[1] = molecular target: T1, PI3Kβ (Homo sapiens, UniProt P42338); assay: PI3 Kinase HTRF assay, PI3Kβ; settings: 10 μM PIP2, 10 μM ATP; read-out: PI3K β IC50
T1 construct: purchased Millipore Corporation 14-603-K
Description: (§1) A PI3 Kinase HTRF® assay kit (cat No. 33-016) purchased from Millipore Corporation was used to screen compounds disclosed herein. This assay used specific, high affinity binding of the GRP1 pleckstrin homology (PH) domain to PIP3, the product of a Class 1A or 1B PI3 Kinase acting on its physiological substrate PIP2. During the detection phase of the assay, a complex was generated between the GST-tagged PH domain and biotinylated short chain PIP3. The biotinylated PIP3 and the GST-tagged PH domain recruited fluorophores (Streptavidin-Allophycocyanin and Europium-labeled anti-GST respectively) to form the fluorescence resonance energy transfer (FRET) architecture, generating a stable time-resolved FRET signal. The FRET complex was disrupted in a competitive manner by non-biotinylated PIP3, a product formed in the PI3 Kinase assay.
(§2) PI3 Kinase α, β, γ and δ activity was assayed using the PI3 Kinase HTRF® assay kit (catalogue No. 33-016) purchased from Millipore Corporation. Purified recombinant PI3Kα (catalogue No. 14-602-K), PI3Kβ (catalogue No. 14-603-K), PI3Kγ (catalogue No. 14-558-K) and PI3Kδ (catalogue No. 14-604-K) were obtained from Millipore Corporation. Purified recombinant PI3K enzyme was used to catalyze the phosphorylation of phosphatidylinositol 4,5-bisphosphate (PIP2 at 10 μM) to phosphatidylinositol 3,4,5-trisphosphate (PIP3) in the presence of 10 μM ATP. The assay was carried out in 384-well format and detected using a Perkin Elmer En Vision Xcite Multilabel Reader. Emission ratios were converted into percent inhibitions and imported into GraphPad Prism software. The concentration necessary to achieve inhibition of enzyme activity by 50% (IC50) was calculated using concentrations ranging from 20 μM to 0.1 nM (12-point curve). IC50 values were determined using a nonlinear regression model available in GraphPad Prism 5. […]

[2] = molecular target: T2, PI3Kδ (Homo sapiens, UniProt O00329); assay: PI3 Kinase HTRF assay, PI3Kδ; settings: 10 μM PIP2, 10 μM ATP; read-out: PI3K δ IC50
T2 construct: purchased Millipore Corporation 14-604-K
Description: as §1, §2

[3] = molecular target: T3, PI3Kα (Homo sapiens, UniProt P42336); assay: PI3 Kinase HTRF assay, PI3Kα; settings: 10 μM PIP2, 10 μM ATP; read-out: PI3K α IC50
T3 construct: purchased Millipore Corporation 14-602-K
Description: as §1, §2

[4] = molecular target: T4, PI3Kγ (Homo sapiens, UniProt P48736); assay: PI3 Kinase HTRF assay, PI3Kγ; settings: 10 μM PIP2, 10 μM ATP; read-out: PI3K γ IC50
T4 construct: purchased Millipore Corporation 14-558-K
Description: as §1, §2

T2 sequence (O00329 whole entry): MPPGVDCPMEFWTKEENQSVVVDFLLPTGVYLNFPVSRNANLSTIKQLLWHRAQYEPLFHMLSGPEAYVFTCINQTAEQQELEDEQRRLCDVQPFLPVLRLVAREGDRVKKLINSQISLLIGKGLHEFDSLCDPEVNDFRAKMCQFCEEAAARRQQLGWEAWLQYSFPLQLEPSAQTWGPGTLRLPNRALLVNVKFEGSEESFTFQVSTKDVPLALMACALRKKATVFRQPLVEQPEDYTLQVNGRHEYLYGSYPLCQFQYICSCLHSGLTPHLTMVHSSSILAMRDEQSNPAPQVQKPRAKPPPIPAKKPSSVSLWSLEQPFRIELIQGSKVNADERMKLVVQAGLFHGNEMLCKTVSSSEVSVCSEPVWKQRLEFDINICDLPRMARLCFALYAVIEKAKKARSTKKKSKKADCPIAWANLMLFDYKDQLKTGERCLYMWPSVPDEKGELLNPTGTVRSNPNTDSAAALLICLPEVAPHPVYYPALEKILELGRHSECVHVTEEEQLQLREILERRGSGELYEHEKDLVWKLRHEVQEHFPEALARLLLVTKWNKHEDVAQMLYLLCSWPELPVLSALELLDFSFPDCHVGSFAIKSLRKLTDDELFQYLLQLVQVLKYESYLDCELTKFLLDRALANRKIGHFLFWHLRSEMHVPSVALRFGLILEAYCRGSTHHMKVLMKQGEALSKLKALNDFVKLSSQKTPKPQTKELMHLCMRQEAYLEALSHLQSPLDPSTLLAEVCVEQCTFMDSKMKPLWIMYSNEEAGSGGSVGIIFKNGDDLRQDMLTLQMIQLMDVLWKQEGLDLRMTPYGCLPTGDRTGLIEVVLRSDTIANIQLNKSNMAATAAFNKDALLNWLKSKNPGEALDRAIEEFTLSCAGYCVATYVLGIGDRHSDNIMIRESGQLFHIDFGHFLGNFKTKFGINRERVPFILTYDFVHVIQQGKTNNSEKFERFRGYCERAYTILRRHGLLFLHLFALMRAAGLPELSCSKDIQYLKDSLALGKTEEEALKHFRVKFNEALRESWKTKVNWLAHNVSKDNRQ
T2 sequence (P27986 whole entry partner): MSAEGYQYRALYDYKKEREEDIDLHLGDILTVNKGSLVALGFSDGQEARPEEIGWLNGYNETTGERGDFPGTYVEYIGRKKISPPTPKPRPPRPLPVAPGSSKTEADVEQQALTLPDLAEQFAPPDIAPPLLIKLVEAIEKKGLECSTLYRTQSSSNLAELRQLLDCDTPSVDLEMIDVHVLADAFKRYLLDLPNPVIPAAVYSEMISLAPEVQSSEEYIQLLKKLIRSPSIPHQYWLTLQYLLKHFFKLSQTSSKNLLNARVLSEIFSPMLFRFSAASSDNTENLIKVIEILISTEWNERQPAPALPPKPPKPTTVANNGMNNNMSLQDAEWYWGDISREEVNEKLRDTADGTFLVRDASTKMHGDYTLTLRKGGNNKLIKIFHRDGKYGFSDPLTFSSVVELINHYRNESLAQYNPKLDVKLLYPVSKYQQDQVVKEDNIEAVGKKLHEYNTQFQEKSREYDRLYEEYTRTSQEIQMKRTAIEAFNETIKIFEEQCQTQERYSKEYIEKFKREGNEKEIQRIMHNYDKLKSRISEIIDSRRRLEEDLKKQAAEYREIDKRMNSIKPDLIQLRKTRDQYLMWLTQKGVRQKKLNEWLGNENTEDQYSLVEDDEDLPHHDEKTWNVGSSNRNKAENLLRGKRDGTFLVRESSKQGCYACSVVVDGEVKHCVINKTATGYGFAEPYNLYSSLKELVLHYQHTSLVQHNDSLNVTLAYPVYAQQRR
T4 sequence (P48736 whole entry): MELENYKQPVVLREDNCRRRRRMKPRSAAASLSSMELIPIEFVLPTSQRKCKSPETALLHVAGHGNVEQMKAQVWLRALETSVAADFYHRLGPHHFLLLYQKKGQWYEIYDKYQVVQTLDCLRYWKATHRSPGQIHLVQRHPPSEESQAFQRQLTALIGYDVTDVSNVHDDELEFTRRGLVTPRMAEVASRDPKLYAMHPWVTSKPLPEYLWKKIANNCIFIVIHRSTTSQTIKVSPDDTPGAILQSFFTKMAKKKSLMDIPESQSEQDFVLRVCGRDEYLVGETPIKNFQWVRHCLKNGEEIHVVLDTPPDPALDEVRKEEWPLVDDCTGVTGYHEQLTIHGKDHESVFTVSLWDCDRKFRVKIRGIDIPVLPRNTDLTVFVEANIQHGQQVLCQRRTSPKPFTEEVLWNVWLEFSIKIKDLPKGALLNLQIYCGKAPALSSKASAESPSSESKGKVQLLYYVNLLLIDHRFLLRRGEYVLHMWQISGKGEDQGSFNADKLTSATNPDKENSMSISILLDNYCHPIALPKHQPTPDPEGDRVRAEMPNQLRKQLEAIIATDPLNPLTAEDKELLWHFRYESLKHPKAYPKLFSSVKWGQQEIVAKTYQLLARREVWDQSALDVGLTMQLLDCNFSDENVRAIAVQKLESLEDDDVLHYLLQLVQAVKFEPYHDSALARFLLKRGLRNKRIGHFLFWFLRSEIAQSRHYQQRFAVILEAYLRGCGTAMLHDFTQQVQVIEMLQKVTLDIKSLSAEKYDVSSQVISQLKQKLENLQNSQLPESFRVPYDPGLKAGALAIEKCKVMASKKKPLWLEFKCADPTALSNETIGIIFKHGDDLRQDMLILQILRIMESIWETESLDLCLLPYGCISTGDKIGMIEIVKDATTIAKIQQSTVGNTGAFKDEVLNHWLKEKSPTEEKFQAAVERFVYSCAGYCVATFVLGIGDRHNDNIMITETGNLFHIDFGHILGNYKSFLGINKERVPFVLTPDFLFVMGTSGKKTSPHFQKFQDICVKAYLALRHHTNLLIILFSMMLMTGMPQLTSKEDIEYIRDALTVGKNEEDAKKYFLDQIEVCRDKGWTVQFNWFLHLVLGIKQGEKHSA
T1 sequence (P42338 whole entry): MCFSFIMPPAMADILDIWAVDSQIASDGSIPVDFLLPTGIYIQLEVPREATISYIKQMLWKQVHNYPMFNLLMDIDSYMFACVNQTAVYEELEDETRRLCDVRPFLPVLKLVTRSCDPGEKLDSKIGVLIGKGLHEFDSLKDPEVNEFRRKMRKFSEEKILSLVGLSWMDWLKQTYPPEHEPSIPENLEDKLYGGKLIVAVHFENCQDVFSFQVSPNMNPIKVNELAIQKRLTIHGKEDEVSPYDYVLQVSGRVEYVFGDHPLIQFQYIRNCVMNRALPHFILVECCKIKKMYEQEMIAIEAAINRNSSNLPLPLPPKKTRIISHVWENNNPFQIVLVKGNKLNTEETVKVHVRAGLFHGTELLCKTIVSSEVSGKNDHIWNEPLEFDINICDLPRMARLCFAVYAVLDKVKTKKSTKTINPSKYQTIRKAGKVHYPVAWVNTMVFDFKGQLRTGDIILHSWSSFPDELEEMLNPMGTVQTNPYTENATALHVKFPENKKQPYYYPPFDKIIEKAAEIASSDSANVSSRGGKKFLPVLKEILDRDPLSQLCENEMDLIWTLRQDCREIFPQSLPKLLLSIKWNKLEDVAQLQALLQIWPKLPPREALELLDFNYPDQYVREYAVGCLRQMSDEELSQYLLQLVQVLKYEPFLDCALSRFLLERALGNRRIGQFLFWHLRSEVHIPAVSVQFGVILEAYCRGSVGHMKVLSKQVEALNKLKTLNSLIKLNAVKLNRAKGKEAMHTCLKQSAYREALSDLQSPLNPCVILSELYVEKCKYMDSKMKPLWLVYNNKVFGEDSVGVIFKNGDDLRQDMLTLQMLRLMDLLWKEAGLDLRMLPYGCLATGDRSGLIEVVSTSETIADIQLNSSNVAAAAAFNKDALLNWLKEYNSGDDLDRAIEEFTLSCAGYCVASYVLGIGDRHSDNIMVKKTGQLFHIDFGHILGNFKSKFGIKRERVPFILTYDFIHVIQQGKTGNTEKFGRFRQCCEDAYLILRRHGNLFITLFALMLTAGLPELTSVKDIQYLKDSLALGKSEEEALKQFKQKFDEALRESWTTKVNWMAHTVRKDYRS
T1 sequence (P27986 whole entry partner): as the sequence (P27986 whole entry partner) above
T3 sequence (P42336 whole entry): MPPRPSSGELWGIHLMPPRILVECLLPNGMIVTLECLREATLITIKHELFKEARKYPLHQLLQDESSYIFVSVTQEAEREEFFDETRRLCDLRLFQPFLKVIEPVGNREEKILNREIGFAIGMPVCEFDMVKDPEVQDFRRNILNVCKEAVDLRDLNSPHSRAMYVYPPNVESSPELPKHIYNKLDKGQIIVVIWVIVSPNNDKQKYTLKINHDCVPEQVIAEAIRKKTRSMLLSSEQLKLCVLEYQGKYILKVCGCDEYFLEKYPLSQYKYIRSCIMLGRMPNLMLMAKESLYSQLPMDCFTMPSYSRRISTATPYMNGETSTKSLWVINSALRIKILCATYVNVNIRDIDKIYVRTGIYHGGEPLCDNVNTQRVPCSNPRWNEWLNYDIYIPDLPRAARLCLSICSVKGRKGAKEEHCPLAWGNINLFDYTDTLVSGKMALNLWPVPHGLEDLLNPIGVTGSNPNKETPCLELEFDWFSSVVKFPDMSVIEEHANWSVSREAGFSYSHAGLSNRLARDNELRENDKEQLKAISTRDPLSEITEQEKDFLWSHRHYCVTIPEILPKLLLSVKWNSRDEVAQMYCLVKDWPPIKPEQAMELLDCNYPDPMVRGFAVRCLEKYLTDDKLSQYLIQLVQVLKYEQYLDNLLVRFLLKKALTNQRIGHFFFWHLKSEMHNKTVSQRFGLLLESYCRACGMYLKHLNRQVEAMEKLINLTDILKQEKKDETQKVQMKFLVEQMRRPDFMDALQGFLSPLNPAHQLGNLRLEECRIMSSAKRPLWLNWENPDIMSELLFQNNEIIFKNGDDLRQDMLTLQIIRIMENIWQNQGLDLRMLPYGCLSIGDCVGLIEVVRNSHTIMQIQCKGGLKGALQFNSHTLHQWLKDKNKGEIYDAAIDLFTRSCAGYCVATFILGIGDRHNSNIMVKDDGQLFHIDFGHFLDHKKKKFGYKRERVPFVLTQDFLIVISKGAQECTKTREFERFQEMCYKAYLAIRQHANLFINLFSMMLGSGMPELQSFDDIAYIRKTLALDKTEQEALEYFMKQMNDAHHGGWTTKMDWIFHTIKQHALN
T3 sequence (P27986 whole entry partner): as the sequence (P27986 whole entry partner) above

Compound | IC50 [1] [µM] | IC50 [2] [µM] | IC50 [3] [µM] | IC50 [4] [µM]
C[C@H](Nc1ncnc2[nH]cnc12)c1cc2cccc(-c3cnn(C)c3)c2c(CCN2CCOCC2)n1 [Compound 157] | > 10 | < 1 | > 10 | < 10
Cc1nc([C@H](C)Nc2ncnc3[nH]cnc23)cc2cccc(-c3cccnc3)c12 [Compound 170] | > 10 | < 0.1 | > 10 | < 10
Cc1nc([C@H](C)Nc2ncnc3[nH]cnc23)cc2cccc(-c3cnn(C)c3)c12 [Compound 171] | > 10 | < 0.1 | < 10 | < 10
C[C@H](Nc1ccnc2ccnn12)c1cc2cccc(Cl)c2c(OC2CCN(S(C)(=O)=O)CC2)n1 [Compound 174] | < 10 | < 1 | > 10 | > 10
C[C@H](Nc1ncnc2cccnc12)c1cc2cccc(-c3cnn(C)c3)c2c(C(=O)N2CCOCC2)n1 [Compound 187] | > 10 | < 1 | < 10 | < 10
C[C@H](Nc1ncnc2[nH]cnc12)c1cc2cccc(-c3cnn(C)c3)c2c(Cl)n1 [Compound 193] | > 10 | < 0.1 | > 10 | < 1
Cc1nc([C@H](C)Nc2ncnc3[nH]cnc23)cc2cccc(C(=O)N3CCOCC3)c12 [Compound 198] | > 10 | < 1 | > 10 | > 10
Cc1nc([C@H](C)Nc2ncnc3[nH]cnc23)cc2cccc(C(=O)N3C4CCC3COC4)c12 [Compound 199] | > 10 | < 10 | > 10 | > 10
C[C@H](Nc1ncnc2cccnc12)c1cc2cccc(-c3cnn(C)c3)c2c(C(=O)N2C3CCC2COC3)n1 [Compound 200] | > 10 | < 1 | > 10 | > 10
C[C@H](Nc1ncnc2[nH]cnc12)c1cc2cccc(-c3cnn(C)c3)c2c(C(=O)N2C3CCC2COC3)n1 [Compound 201] | > 10 | < 0.1 | > 10 | < 1
Cc1nc([C@H](C)Nc2ncnc3[nH]cnc23)cc2cccc(C(=O)N3CCN(C)CC3)c12 [Compound 202] | > 10 | > 10 | > 10 | > 10
C[C@H](Nc1ncnc2[nH]cc(C#N)c12)c1cc2cccc(Cl)c2c(C(=O)N2CCOCC2)n1 [Compound 203] | < 10 | < 0.1 | < 10 | < 1
C[C@H](Nc1ncnc2[nH]cc(F)c12)c1cc2cccc(Cl)c2c(C(=O)N2CCOCC2)n1 [Compound 205] | < 10 | < 0.1 | < 10 | < 1
C[C@H](Nc1ncnc2[nH]cc(C#N)c12)c1cc2cccc(Cl)c2c(C(=O)N2C3CCC2COC3)n1 [Compound 206] | < 10 | < 0.1 | > 10 | < 10
C[C@H](Nc1ncnc2scnc12)c1cc2cccc(Cl)c2c(C(=O)NC2CCNCC2)n1 [Compound 209] | > 10 | < 0.1 | < 10 | > 10
C[C@H](Nc1ncnc2scnc12)c1cc2cccc(Cl)c2c(C(=O)NC2CCN(C)CC2)n1 [Compound 210] | > 10 | < 0.1 | > 10 | > 10
CC(C)N1CCC(NC(=O)c2nc([C@H](C)Nc3ncnc4scnc34)cc3cccc(Cl)c23)CC1 [Compound 211] | > 10 | < 1 | > 10 | > 10
C[C@H](Nc1ncnc2scnc12)c1cc2cccc(Cl)c2c(C(=O)NC2CCOC2)n1 (stereo partly drawn) [Compound 215] | > 10 | < 0.1 | > 10 | < 10
C[C@H](Nc1ncnc2scnc12)c1cc2cccc(Cl)c2c(C(=O)NCC2CCOCC2)n1 [Compound 216] | > 10 | < 1 | > 10 | > 10
C[C@H](Nc1nc(N)ncc1C(F)(F)F)c1cc2cccc(Cl)c2c(C(=O)N2CCOCC2)n1 [Compound 217] | > 10 | < 1 | > 10 | < 10

Compound | IC50 [1] [µM] | IC50 [2] [µM] | IC50 [3] [µM] | IC50 [4] [µM]
C[C@H](Nc1ncnc2scnc12)c1cc2cccc(Cl)c2c(C(=O)N2CCNC(=O)C2)n1 [Compound 218] | < 10 | < 0.1 | > 10 | < 1
C[C@H](Nc1ncnc2cccnc12)c1cc2cccc(Cl)c2c(C(=O)N2CCS(=O)(=O)CC2)n1 [Compound 219] | > 10 | < 1 | > 10 | < 1
CC1CN(C(=O)c2nc([C@H](C)Nc3ncnc4scnc34)cc3cccc(Cl)c23)CCO1 (stereo partly drawn) [Compound 221] | > 10 | < 0.1 | > 10 | < 1
CC1CN(C(=O)c2nc([C@H](C)Nc3ncnc4cccnc34)cc3cccc(Cl)c23)CCO1 (stereo partly drawn) [Compound 222] | > 10 | < 1 | < 10 | < 1
C[C@H](Nc1ncnc2scnc12)c1cc2cccc(Cl)c2c(C(=O)N(C)C)n1 [Compound 223] | < 10 | < 1 | > 10 | < 1
C[C@H](Nc1ncnc2cccnc12)c1cc2cccc(Cl)c2c(C(=O)N(C)C)n1 [Compound 224] | < 10 | < 10 | > 10 | < 1
C[C@H](Nc1ncnc2cccnc12)c1cc2cccc(Cl)c2c(C(=O)N2CCNC(=O)C2)n1 [Compound 225] | > 10 | < 1 | < 10 | < 1
C[C@H](Nc1ncnc2cccnc12)c1cc2cccc(Cl)c2c(C(=O)N2CCC(F)(F)CC2)n1 [Compound 226] | > 10 | < 1 | > 10 | < 10
C[C@H](Nc1ncnc2scnc12)c1cc2cccc(Cl)c2c(C(=O)N2CCCOCC2)n1 [Compound 227] | < 10 | < 0.1 | < 10 | < 10
C[C@H](Nc1ncnc2scnc12)c1cc2cccc(Cl)c2c(C(=O)N2CCCCC2)n1 [Compound 229] | < 1 | < 0.1 | < 10 | < 10
C[C@H](Nc1ncnc2cccnc12)c1cc2cccc(Cl)c2c(C(=O)N2CCCCC2)n1 [Compound 230] | > 10 | < 1 | < 10 | < 1
C[C@H](Nc1ncnc2cccnc12)c1cc2cccc(Cl)c2c(C(=O)N2CCCOCC2)n1 [Compound 231] | > 10 | < 1 | < 10 | < 10
C[C@H](Nc1ncnc2cccnc12)c1cc2cccc(Cl)c2c(C(=O)N2CCC(O)CC2)n1 [Compound 233] | > 10 | < 1 | < 10 | < 10
C[C@@H](Nc1ncnc2[nH]cnc12)c1cc2cccc(Cl)c2c(CN2CCCC2)n1 [Compound 239] | > 10 | > 10 | > 10 | > 10
C[C@H](Nc1ncnc2cccnc12)c1cc2cccc(-c3cnn(C)c3)c2c(N2CCN(C)CC2)n1 [Compound 243] | < 10 | < 1 | > 10 | < 10
COCCN(C)C(=O)c1nc([C@H](C)Nc2ncnc3cccnc23)cc2cccc(Cl)c12 [Compound 244] | > 10 | < 1 | > 10 | < 10
C[C@H](Nc1ncnc2cccnc12)c1cc2cccc(Cl)c2c(C(=O)N2CCOC[C@H]2C)n1 [Compound 245] | > 10 | < 1 | > 10 | < 1
C[C@H](Nc1ncnc2scnc12)c1cc2cccc(Cl)c2c(C(=O)N2CCOC[C@H]2C)n1 [Compound 246] | < 10 | < 1 | < 10 | < 10
COCCN(C)C(=O)c1nc([C@H](C)Nc2ncnc3scnc23)cc2cccc(Cl)c12 [Compound 249] | < 10 | < 0.1 | < 10 | < 1
